One compound from patent publication US7611729B2, “Dosage forms having prolonged active ingredient release” (Lunamed AG, priority 2001, dated 2009) can be followed below.

For this data set, the system named is adenocarcinoma of the prostate. Put plainly: Human test results: oral treatment of prostate cancer patients with slow release tablets. The data set is classed as in vivo. Particulars: general statement. How it is done: Diseases that can be beneficially influenced by the present dosage form include in particular benign prostate hyperplasy, cancer, leukemias, cystic fibrosis, AIDS, kidney and liver diseases, thalassemia and urea cycle disorders. For example, the treatment of an adenocarcinoma of the prostate can be carried out by administering twice daily, e.g. in the morning and evening, a pharmaceutical tablet formulation containing 250 mg of sodium 4-phenylbutyrate. […] Treatment may be continued for several month or years until a satisfactory effect is observed or the patient is total free of the disease.
Following are descriptions of treatments and test results obtained from human patients.
This patient presented on Apr. […] Because of progressive bone pains they underwent bilateral orchiectomy in February 1996. They became free of pain until November 1998 when they again suffered bone pains mainly in their back. They were than treated orally twice daily with 250 mg of sodium phenylbutyrate retard tablets according to Example 1. Four weeks later they were free of pain.
This patient presented in March 1997 with a pathological fracture of the 8th thoracic vertebra caused by metastatic destruction. The multiple biopsies of the slightly enlarged prostate was positive for adenocarcinoma on both sides. […] On Apr. 10, 1997 they underwent bilateral orchidectomy. […]

As to `O=C([O-])CCCc1ccccc1.[Na+]` [sodium 4-phenylbutyrate], the “therapeutic effect (pains)” value (adenocarcinoma of the prostate, tablet with 250 mg twice daily, after treatment of about one month) is on record as “pains disappear”. The side effects entry (long period of treatment) is given as “no side effects”.
